Source: paper PMC11413854, “Reversible Control of Native GluN2B-Containing NMDA Receptors with Visible Light” (ACS Chemical Neuroscience, 2024)
Where “and” joins values, the source holds several entries; their conditions need not be identical. Equal entries are not always repeated.

System: native NMDA currents of cultured cortical neurons
Test: Whole-cell patch-clamp of NMDA currents in cultured cortical neurons (DIV 6-8), spectral dependence of bound OptoNAM-3
Type: cell-based, mouse
Conditions: for inhibition of NMDA currents in cortical neurons: 2 µM
Protocol: We then turned to native NMDA currents. We repeated these experiments on cultured cortical neurons at days in vitro [DIV] 6–8, a stage at which GluN2B-containing NMDARs form the major population of neuronal NMDARs.[48] On cortical neurons, 2 μM OptoNAM-3 induced 70% inhibition of NMDA-induced currents in the dark. The lower inhibitory effect of trans-OptoNAM-3 on neurons compared to HEK cells is most likely due to the mixture of NMDAR subtypes expressed in neurons.[48] […] This effect is furthermore partially reversible thanks to the use of 550 nm light.
Mice were housed in the IBENS rodent central facility duly accredited by the French Ministry of Agriculture. All experiments were performed in compliance with French and European regulations on care and protection of laboratory animals (EU Directive 2010/63, French Law 2013–118, February 6, 2013), and were approved by local ethics committees and by the French Ministry of Research and Innovation (authorization numbers #05137.02, APAFIS #28867-2020121814485893). Dissociated cultures of cortical neurons were prepared from mouse embryos at E18 as described previously.[84] After removing meninges, cortices were placed in ice-cold HBSS solution. Cell dissociation was performed individually for cortices of each embryo. Cortices were incubated in 2.5% trypsin at 37 °C for 7 min, rinsed three times with 37 °C phosphate buffer saline, and finally suspended in plating medium (Neurobasal Medium, supplemented with 0.5 mM L-glutamine, 1% B27 supplement, and penicillin/streptomycin). The neurons were further dissociated by trituration, and cells were plated on poly-D-lysine coated coverslips in 24-well culture dishes at a density of 3 × 10^5 cells per well for the excitotoxicity test and that of 1 × 10^5 cells per well for patch clamp experiments. Cultures were incubated at 37 °C in a humidified atmosphere of 5% CO2. Cells were fed by changing 1/2 medium to fresh Neurobasal medium every 4 days. For the excitotoxicity experiments, after 5 days in vitro, growth of non-neuronal cells was halted by a 24 h exposure to FDX ([…] 5-fluoro-2′-deoxyuridine). The cultures were used for experiments after 6 to 14 days in vitro (DIV6–8 for patch clamp experiments and DIV14 for excitotoxicity tests).
Whole-cell patch-clamp recordings on neurons were performed 6 to 8 days after the culturing step (DIV 6–8) using the same recording conditions as for HEK cells. Recordings were performed at a holding potential of −60 mV and at room temperature. Currents were elicited by NMDA (300 μM) and D-serine (50 μM) to specifically activate NMDARs.
OptoNAM-3 was perfused in the dark onto the patched neuron (Figure 5A–C). […] Stopping perfusion ensures that trans-OptoNAM coming from the perfusion tube […] with the wavelength PSS during the illumination procedure.
OptoNAM-3 was perfused in the dark onto the patched neuron (Figures 4G,H and 5F,H). […] Then, wavelengths from 435 to 580 nm were applied and the inhibition recovery was monitored.
For the trans to cis and cis to trans isomerization study in the binding site (Figure 5C,H respectively), we decided to normalize (scale) the inhibition values of OptoNAM-3 at different wavelengths by the inhibition induced by OptoNAM-3 at 365 nm and in the dark since these two conditions represent respectively the minimum and maximum of the inhibition. We followed this equation: [drawing 2] where m ∈ [r365,rdark] is the measurement (inhibition) to be scaled, r365 and rdark correspond to the minimum (365 nm state inhibition) and maximum (dark state inhibition) of the measurement, respectively, and t365 and tdark represent the minimum and maximum of the range (OptoNAM-3 365 nm PSS and dark PSS mean inhibition). To reduce the decreasing effect of normalization onto SEM, the SEMs represented in the figures were calculated with the data injected in the first part of the equation ( [drawing 3] ). […]

## c1ccc(/N=N/c2ccc(CCNc3ccncc3)cc2)cc1 [OptoNAM-3, (E)-N-(4-(Phenyldiazenyl)phenethyl)pyridin-4-amine]
365 nm irradiation on the cell (Fig 5C)
  inhibition of NMDA currents in cortical neurons: 27% ± 2%
550 nm illumination from UV state (Fig 4H)
  inhibition of NMDA currents in cortical neurons: 52% ± 3% and 52.150%
550 nm post 365 nm illumination (Fig 5H)
  inhibition of NMDA currents in cortical neurons: 55% ± 4%
dark, NMDA 300 µM + D-serine 50 µM
  inhibition of NMDA currents in cortical neurons: 70% ± 3% and 70.580%
Under 365 nm illumination (Fig 4H)
  inhibition of NMDA currents in cortical neurons: 25% ± 4% and 25.090%
365 nm on the cell, calculated from inhibition
  proportion of cis isomer, bound OptoNAM-3 365 nm PSS: ~90%
460 nm light from dark state, calculated from inhibition
  proportion of cis isomer, bound OptoNAM-3: ~68%
550 and 580 nm applied from the dark state
  trans-to-cis isomerization in the binding site: did not induce visible trans-to-cis isomerization
Figure 5C series (from dark PSS), 365 nm
  % Inhibition (normalized), mean: 27.607%
Figure 5C series (from dark PSS), 435 nm
  % Inhibition (normalized), mean: 44.741%
Figure 5C series (from dark PSS), 460 nm
  % Inhibition (normalized), mean: 50.648%
Figure 5C series (from dark PSS), 490 nm
  % Inhibition (normalized), mean: 64.437%
Figure 5C series (from dark PSS), 525 nm
  % Inhibition (normalized), mean: 71.178%
Figure 5C series (from dark PSS), 550 nm
  % Inhibition (normalized), mean: 73.370%
Figure 5C series (from dark PSS), 580 nm
  % Inhibition (normalized), mean: 73.446%
Figure 5C series, dark
  % Inhibition (normalized), mean: 73.585%
Figure 5H series (from 365 nm PSS), 365 nm
  % Inhibition (normalized), mean: 27.795%
Figure 5H series (from 365 nm PSS), 435 nm
  % Inhibition (normalized), mean: 27.982%
Figure 5H series (from 365 nm PSS), 460 nm
  % Inhibition (normalized), mean: 29.032%
Figure 5H series (from 365 nm PSS), 490 nm
  % Inhibition (normalized), mean: 44.081%
Figure 5H series (from 365 nm PSS), 525 nm
  % Inhibition (normalized), mean: 43.503%
Figure 5H series (from 365 nm PSS), 550 nm
  % Inhibition (normalized), mean: 54.910%
Figure 5H series (from 365 nm PSS), 580 nm
  % Inhibition (normalized), mean: 47.001%
Figure 5H series, dark
  % Inhibition (normalized), mean: 73.111%
At 365, 435 and 460 nm post 365 nm illumination, calculated from inhibition
  proportion of trans isomer, bound OptoNAM-3: ~10%
